Assay results as given in PubChem BioAssay (NCI).
Values joined by “and” are separate entries in the source; they are usually repeats but may differ in a detail not shown here. Equal entries are not always repeated.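 Five compound concentrations were applied to cells in 96-well plates for 48 hours; endpoints were derived by simple linear interpolation of the resulting dose-response curve. GI50 marks 50% less growth. At the TGI there is no net growth.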

Tests used:
Assay in all cases: NCI anticancer screen, dose series, 48 h
HS 578T breast = tested on: HS 578T breast
BT-549 breast = tested on: BT-549 breast
HL-60(TB) leukemia = tested on: HL-60(TB) leukemia
SNB-19 CNS = tested on: SNB-19 CNS
CAKI-1 renal = tested on: CAKI-1 renal
786-0 renal = tested on: 786-0 renal
M14 melanoma = tested on: M14 melanoma
MDA-N = tested on: MDA-N
MCF7 breast = tested on: MCF7 breast
UACC-257 melanoma = tested on: UACC-257 melanoma
NCI/ADR-RES ovarian = tested on: NCI/ADR-RES ovarian

Structure (SMILES)	TGI (HS 578T breast) [µM]	TGI (BT-549 breast) [µM]	TGI (HL-60(TB) leukemia) [µM]	TGI (SNB-19 CNS)	TGI (CAKI-1 renal)	TGI (786-0 renal) [µM]	TGI (M14 melanoma) [µM]	TGI (MDA-N) [µM]	TGI (MCF7 breast) [µM]	TGI (UACC-257 melanoma) [µM]	TGI (NCI/ADR-RES ovarian) [µM]	GI50 (SNB-19 CNS)
CCCN1C(=O)CN(S(=O)(=O)c2ccc(Cl)cc2)C1=O	> 100	> 100	> 100	> 100 µM	> 100 µM	> 100	> 100	> 100	> 100	> 100		
O[C@@H]1[C@H](OC2c3ccccc3-c3ccccc32)[C@H](OCc2ccccc2)[C@@H]2OC[C@H]1O2	> 100	> 100	> 100	> 100 µM	> 100 µM	42.1	> 100	> 100	> 100	> 100	> 100	
CC1(C)CC(=O)C(C(=O)Nc2cccs2)=C(O)C1			57.7	> 100 µM	43.6 µM	> 100	> 100			> 100		
Cc1ccc2c(c1C)CC1(Cc3ccc(C)c(C)c3C1=O)C2=O (stereo unspecified)	> 100	> 100	> 100	> 100 µM	> 100 µM	> 100	> 100	> 100	> 100	> 100	> 100	
COc1ccc(/C=C2\C[C@H]3[C@@H]4CC=C5C[C@@H](O)CC[C@]5(C)[C@H]4CC[C@]3(C)\C2=N\O)cc1	37.5	36.5	24.8	> 100 µM	19.3 µM	44.3	40.3	> 100	> 100	45.7	> 100	
Cc1ccc2c(=O)cc(-c3cc(C)sc3C)[nH]c2n1	7.15	> 100	6.74	> 100 µM	> 100 µM	> 100	> 100	1.92	> 100	> 100	5.29	
C/C=C(/CCC1NCCc2c1[nH]c1ccccc21)[Si](C)(C)C (stereo unspecified)				> 100 µM and 27.3 µM	> 100 µM and 18.3 µM							> 100 µM and 13.9 µM
CCOc1ccc(NC(=O)C(=O)C(/C(=N/N)C(=O)OC)c2nc3ccc([N+](=O)[O-])cc3[nH]c2=O)cc1 (stereo unspecified)	> 100	> 100		> 100 µM	> 100 µM	> 100	> 100	> 100	> 100	> 100	> 100	
COC(=O)/C(=N\N)C(C(=O)C(=O)Nc1cc(Cl)ccc1Cl)c1nc2ccc([N+](=O)[O-])cc2[nH]c1=O (stereo unspecified)	> 100	> 100	> 100		> 100 µM	> 100	> 100	> 100	> 100	> 100	> 100	
COC(=O)/C=C1\C(CO[Si](C)(C)C(C)(C)C)OC(n2ccc(=O)[nH]c2=O)C1O (stereo unspecified)		> 80.5		> 100 µM	> 100 µM	16.6	49.2	> 66.4	31.4	> 40.4	38.4	
COC(=O)C1CC2CC1C1C2SC(F)(F)C1(F)F (stereo unspecified)	> 100			> 100 µM	> 100 µM	> 100	> 100	> 100	> 100	> 100	> 100	
